“And” between values parts separate entries of the source, which are not always exact repeats. Equal values may be shown once. Toxic doses and inconclusive results are not listed. Cut-off read from the data, not from the text of the source: active = T/C of 150% or more; inactive = T/C below 125%.
Test system: L1210 leukemia ip in BDF1 mice, survival T/C
Test: NCI In Vivo Anticancer Drug Screen. Data for tumor model L1210 Leukemia (intraperitoneal) in B6D2F1 (BDF1) mice
Details: endpoint: mean survival time, higher = longer survival
Procedure, shortened: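 Mice bearing the transplanted tumor received compound or vehicle. Survival of the treated group was divided by that of the vehicle-treated control group to give the ratio.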

[1] = dose: 100.0 mg/kg/injection, schedule: Q01DX009 (ip), vehicle: Klucel (hydroxypropylcellulose) (HPC)
[2] = dose: 100.0 mg/kg/injection, schedule: Q04DX003 (ip), vehicle: Klucel (hydroxypropylcellulose) (HPC)
[3] = dose: 200.0 mg/kg/injection, schedule: Q01DX009 (ip), vehicle: Klucel (hydroxypropylcellulose) (HPC)
[4] = dose: 200.0 mg/kg/injection, schedule: Q04DX003 (ip), vehicle: Klucel (hydroxypropylcellulose) (HPC)
[5] = dose: 400.0 mg/kg/injection, schedule: Q01DX009 (ip), vehicle: Klucel (hydroxypropylcellulose) (HPC)
[6] = dose: 400.0 mg/kg/injection, schedule: Q04DX003 (ip), vehicle: Klucel (hydroxypropylcellulose) (HPC)
[7] = dose: 100.0 mg/kg/injection, schedule: Q01DX001 (ip), vehicle: saline
[8] = dose: 100.0 mg/kg/injection, schedule: Q04DX003 (ip), vehicle: saline with Tween-80
[9] = dose: 200.0 mg/kg/injection, schedule: Q04DX003 (ip), vehicle: saline with Tween-80
[10] = dose: 400.0 mg/kg/injection, schedule: Q04DX003 (ip), vehicle: saline with Tween-80
[11] = dose: 200.0 mg/kg/injection, schedule: Q01DX001 (ip), vehicle: saline
[12] = dose: 100.0 mg/kg/injection, schedule: Q01DX009 (ip), vehicle: saline
[13] = dose: 100.0 mg/kg/injection, schedule: Q04DX003 (ip), vehicle: saline
[14] = dose: 200.0 mg/kg/injection, schedule: Q04DX003 (ip), vehicle: saline
[15] = dose: 400.0 mg/kg/injection, schedule: Q04DX003 (ip), vehicle: saline
[16] = dose: 50.0 mg/kg/injection, schedule: Q01DX009 (ip), vehicle: saline with Tween-80
[17] = dose: 100.0 mg/kg/injection, schedule: Q01DX009 (ip), vehicle: saline with Tween-80
[18] = dose: 25.0 mg/kg/injection, schedule: Q01DX009 (ip), vehicle: Klucel (hydroxypropylcellulose) (HPC)
[19] = dose: 50.0 mg/kg/injection, schedule: Q01DX009 (ip), vehicle: Klucel (hydroxypropylcellulose) (HPC)

Measured: T/C

O=C(O)COc1ccc(OCC(=O)O)cc1
inactive: [1] 97 % of control | [2] 95 % of control | [3] 89 % of control | [4] 95 % of control | [5] 89 % of control | [6] 92 % of control

CC1(C(Cl)Cl)CCCCC1=O (stereo not drawn)
inactive: dose: 5.0 mg/kg/injection, schedule: Q01DX001 (ip), vehicle: saline 95 % of control | dose: 10.0 mg/kg/injection, schedule: Q01DX001 (ip), vehicle: saline 96 % of control | dose: 20.0 mg/kg/injection, schedule: Q01DX001 (ip), vehicle: saline 109 % of control | dose: 40.0 mg/kg/injection, schedule: Q01DX001 (ip), vehicle: saline 100 % of control | dose: 80.0 mg/kg/injection, schedule: Q01DX001 (ip), vehicle: saline 97 % of control | [7] 104 % of control

CCOC(=S)c1ccc(S(=O)(=O)Nc2ccccc2)cc1
inactive: dose: 100.0 mg/kg/injection, schedule: Q01DX001 (ip), vehicle: saline with Tween-80 100 % of control | dose: 200.0 mg/kg/injection, schedule: Q01DX001 (ip), vehicle: saline with Tween-80 97 % of control | dose: 400.0 mg/kg/injection, schedule: Q01DX001 (ip), vehicle: saline with Tween-80 95 % of control

COC(=O)C1=CCC=CC1
inactive: [8] 102 % of control | [9] 96 % of control | [10] 93 % of control

OC1(CCCc2ccccc2)CCNCC1
inactive: dose: 75.0 mg/kg/injection, schedule: Q01DX001 (ip), vehicle: saline 104 % of control | dose: 150.0 mg/kg/injection, schedule: Q01DX001 (ip), vehicle: saline 110 % of control

CC1=NN(c2ccc(S(=O)(=O)O)cc2)C(=O)C1
inactive: [2] 89 % of control | [4] 98 % of control | [6] 91 % of control

COC(=O)C(C(=O)OC)C(Br)(OC(C)=O)OC(C)=O
inactive: [8] 98 % of control | [9] 100 % of control | [10] 106 % of control

O=C1C=CC(=O)C1
inactive: dose: 2.25 mg/kg/injection, schedule: Q01DX009 (ip), vehicle: saline 111 % of control | dose: 2.25 mg/kg/injection, schedule: Q04DX003 (ip), vehicle: saline 97 % of control | dose: 4.5 mg/kg/injection, schedule: Q01DX009 (ip), vehicle: saline 106 % of control | dose: 4.5 mg/kg/injection, schedule: Q04DX003 (ip), vehicle: saline 98 % of control | dose: 9.0 mg/kg/injection, schedule: Q04DX003 (ip), vehicle: saline 96 % of control

CC1(C)CC(N=Cc2ccccc2O)CC(C)(C)N1O.CC1(C)CC(N=Cc2ccccc2O)CC(C)(C)N1O.[Co]
inactive: [8] 89 % of control | [9] 92 % of control

OC1Cn2cc(Br)c[n+]2C1 (stereo not drawn)
inactive: dose: 50.0 mg/kg/injection, schedule: Q01DX001 (ip), vehicle: saline 94 % of control | [7] 116 % of control | [11] 102 % of control | dose: 400.0 mg/kg/injection, schedule: Q01DX001 (ip), vehicle: saline 96 % of control

NC(=O)N/N=C(\CBr)c1ccc(Br)cc1
inactive: [12] 93 % of control

CNC(=O)Nc1ccc(C(=O)OCC(C)C)cc1
inactive: [1] 104 % of control | [3] 115 % of control | [5] 104 % of control

CN(C)CCSCCO
inactive: dose: 100.0 mg/kg/injection, schedule: Q04DX002 (ip), vehicle: saline 107 % of control | dose: 200.0 mg/kg/injection, schedule: Q04DX002 (ip), vehicle: saline 95 % of control | dose: 400.0 mg/kg/injection, schedule: Q04DX002 (ip), vehicle: saline 107 % of control

O=C/C=C/Nc1ccccc1
inactive: [13] 105 % of control | [14] 108 % of control | [15] 100 % of control

Cc1ccc(S(=O)(=O)/C=C(\I)c2ccc([N+](=O)[O-])cc2)cc1
inactive: dose: 25.0 mg/kg/injection, schedule: Q01DX009 (ip), vehicle: saline with Tween-80 96 % of control | [16] 91 % of control | [7] 97 % of control | [17] 98 % of control | [11] 95 % of control

CCOC(=O)/C(C#N)=C/c1cccn1Cc1cc2c(cc1[N+](=O)[O-])OCO2
inactive: dose: 25.0 mg/kg/injection, schedule: Q04DX002 (ip), vehicle: Klucel (hydroxypropylcellulose) (HPC) 104 % of control | dose: 50.0 mg/kg/injection, schedule: Q04DX002 (ip), vehicle: Klucel (hydroxypropylcellulose) (HPC) 100 % of control | dose: 100.0 mg/kg/injection, schedule: Q04DX002 (ip), vehicle: Klucel (hydroxypropylcellulose) (HPC) 100 % of control

Clc1ccc(NC2=NCCO2)cc1Cl
inactive: dose: 44.0 mg/kg/injection, schedule: Q04DX003 (ip), vehicle: saline with Tween-80 101 % of control | dose: 66.0 mg/kg/injection, schedule: Q04DX003 (ip), vehicle: saline with Tween-80 103 % of control | dose: 150.0 mg/kg/injection, schedule: Q04DX003 (ip), vehicle: saline with Tween-80 93 % of control | [9] 92 % of control | [10] 94 % of control

Cc1cc2c(cc1C)NC(C)CC(=O)N2 (stereo not drawn)
inactive: [18] 109 % of control | [19] 98 % of control | [1] 104 % of control | [12] 111 % of control | [13] 96 % of control | dose: 133.0 mg/kg/injection, schedule: Q01DX009 (ip), vehicle: Klucel (hydroxypropylcellulose) (HPC) 99 % of control | [3] 94 % of control and 124 % of control | [14] 108 % of control | [15] 105 % of control

COc1cc2c(cc1O)CCCCC2=O
inactive: dose: 50.0 mg/kg/injection, schedule: Q01DX009 (ip), vehicle: saline 92 % of control | [12] 104 % of control | [2] 97 % of control | dose: 200.0 mg/kg/injection, schedule: Q01DX009 (ip), vehicle: saline 119 % of control | [4] 102 % of control | [6] 94 % of control

Cc1cnc2c(=O)[nH]c(=O)[nH]c2n1
inactive: dose: 12.5 mg/kg/injection, schedule: Q01DX009 (ip), vehicle: Klucel (hydroxypropylcellulose) (HPC) 102 % of control | [18] 98 % of control | [19] 96 % of control | [2] 96 % of control | [4] 92 % of control | [6] 92 % of control

Cc1[nH]c2ccc(N=CN(C)C)cc2c1C
inactive: dose: 100.0 mg/kg/injection, schedule: Q04DX002 (ip), vehicle: saline with Tween-80 94 % of control

Nc1ccc2cc(S(=O)(=O)O)cc(S(=O)(=O)O)c2c1 (tested in a mixture with another compound)
inactive: dose: 80.0 mg/kg/injection, schedule: Q01DX Z (ip), vehicle: saline 97 % of control | dose: 170.0 mg/kg/injection, schedule: Q01DX Z (ip), vehicle: saline 96 % of control

CC(=O)c1cccc(NC(=S)NC(=O)/C=C/c2ccccc2)c1
inactive: [16] 92 % of control | [17] 94 % of control | [8] 100 % of control | [9] 103 % of control

CCOc1ccc(NS(=O)(=O)c2ccc(Cl)cc2)cc1
inactive: [1] 102 % of control | [3] 112 % of control | [5] 116 % of control

COC(=O)CCSCCC(=O)OC
inactive: [1] 105 % of control | [2] 103 % of control | [3] 97 % of control | [4] 101 % of control | [5] 95 % of control | [6] 105 % of control

CC1(C)OC2C(C(=O)O)OC(n3cnc4c(N)ncnc43)C2O1 (stereo not drawn)
inactive: dose: 100.0 mg/kg/injection, schedule: Q01DX005 (ip), vehicle: saline 102 % of control | dose: 200.0 mg/kg/injection, schedule: Q01DX005 (ip), vehicle: saline 104 % of control

C[N+](C)([O-])CCC=C1c2ccccc2CCc2ccccc21
inactive: dose: 12.5 mg/kg/injection, schedule: Q04DX003 (ip), vehicle: saline 103 % of control | dose: 25.0 mg/kg/injection, schedule: Q04DX003 (ip), vehicle: saline 106 % of control | dose: 50.0 mg/kg/injection, schedule: Q04DX003 (ip), vehicle: saline 103 % of control | [13] 103 % of control | [14] 97 % of control

OC1C2CCC(C2)[CH]1[Hg][Cl] (stereo not drawn)
inactive: dose: 15.0 mg/kg/injection, schedule: Q01DX001 (ip), vehicle: carboxymethylcellulose (CMC) 95 % of control

O=C(NNc1ccc([N+](=O)[O-])cc1)c1ccccc1
inactive: [2] 94 % of control | [4] 94 % of control | [6] 100 % of control

Reference: PubChem BioAssay AID248 (DTP/NCI, 2004)
